Data reported in PubChem BioAssay AID624382 (Sanford-Burnham Center for Chemical Genomics, 2012).
Activity calls are given as the source filed them. How the calls were made is not given here.

target: Small ubiquitin-related modifier 1 (Homo sapiens) (UniProt P63165); assay: inhibitors of SUMO1 peptide binding, dose response, biochemical, fluorescence polarization, uHTS hits (AID 624382)
Sequence (P63165 whole entry, looked up): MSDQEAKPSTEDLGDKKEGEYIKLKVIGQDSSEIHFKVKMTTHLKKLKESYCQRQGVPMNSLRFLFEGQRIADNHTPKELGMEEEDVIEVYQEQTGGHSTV

SMILES	IC50
C[c-]1[c-](C)[c-](C)[c-](C)[c-]1C.[Fe].c1cc2nccc(N3CCCC3)[c-]2c1 (stereo not drawn)	11.9 µM
CCN(CC)P(=O)(NC(=O)C(Cl)(Cl)Cl)N(CC)CC.[Cl-].[Cl-].[Cl-].[Nd+3]	> 66.6 µM (inactive)
C=Cc1c(C)c2cc3[nH]c(cc4nc(cc5nc(cc1[nH]2)C(C)=C5CCC(=O)O)C(CCC(=O)O)=C4C)c(C)c3C=C	> 66.6 µM (inactive)
